This note sets out measurements from publication PMC9981747, “A covalent BTK ternary complex compatible with targeted protein degradation” (Nature Communications, 2023).

Values joined by “and” are separate entries in the source; they are usually repeats but may differ in a detail not shown here. Identical values can stand only once. Bounds are passed on as bounds.

In one test the target is T1, BTK^FL-C481S (Homo sapiens, UniProt Q06187, C481S).
T1 construct: we used a full-length BTK (aa1-659) with a C terminal Tobacco Etch Virus protease (TEV) site; expressed in transfected cells; host or cells: Expi293 (HEK293)
Briefly: Covalent modification of BTK^FL-C481S in Expi293 cells, intact mass spectrometry. The format is cell-based. The note with it: 20 µM. The procedure: For covalent modification detection assays, the compound was added to Expi293 cells after enhancer treatment. At each timepoint 10 mL of cells were harvested, rapidly cooled to 4 °C in an ice bath, and centrifuged at 100 x g at 4 °C for 5 min. The pellet was washed twice with ice-cold PBS, snap-frozen in liquid nitrogen, and stored at −80 °C. Each pellet was resuspended in 0.1 mL ice-cold RIPA Buffer supplemented with 40 µM BCNC (to outcompete any remaining BCCov), protease inhibitor, and benzonase, and sonicated with 10 brief blasts at power 20. Lysate was centrifuged at 15 K x g for 20 min at 4 °C and prepared for western blotting as detailed above. When samples were evaluated for covalent adduct formation, a purification step was required. Briefly, the ~1 mL of clarified lysate was added to 9 mL of FLAG binding buffer (25 mM HEPES 7.5, 300 mM NaCl, 10% glycerol). […]
Each sample was analyzed using intact mass spectrometry under denaturing conditions using an Agilent 6530 QToF Mass Spectrometer coupled with an Agilent Infinity 1290 UPLC chromatography system. Spectra were analyzed using ChemLaunch v1.6.8 (Healex Systems), Mass Hunter V7.0 (Agilent Technologies), and BioConfirm v8.0 (Agilent Technologies). For all proteins analyzed, approximately 2 μl of 0.1–0.4 mg/ml protein sample was added to 8 μl 0.2% trifluoroacetic acid (TFA) (Sigma T6508–100 mL). […]

The target of test [1] is T2, BTK^FL (Homo sapiens, UniProt Q06187).
T2 construct: we used a full-length BTK (aa1-659) with a C terminal Tobacco Etch Virus protease (TEV) site; expressed in transfected cells; host or cells: Expi293 (HEK293)
The test can be described thus: Covalent modification of BTK^FL in Expi293 cells without cIAP1, immunopurification and intact mass spectrometry. The format is cell-based. The note with it: for Cov Form Over Time (% covalent bond formation): 5 µM, no exogenous cIAP1, replicates; for BTK^FL covalently modified: 18 h, n = 1. The procedure:
For covalent modification detection assays, the compound was added to Expi293 cells after enhancer treatment. At each timepoint 10 mL of cells were harvested, rapidly cooled to 4 °C in an ice bath, and centrifuged at 100 x g at 4 °C for 5 min. The pellet was washed twice with ice-cold PBS, snap-frozen in liquid nitrogen, and stored at −80 °C. Each pellet was resuspended in 0.1 mL ice-cold RIPA Buffer supplemented with 40 µM BCNC (to outcompete any remaining BCCov), protease inhibitor, and benzonase, and sonicated with 10 brief blasts at power 20. Lysate was centrifuged at 15 K x g for 20 min at 4 °C and prepared for western blotting as detailed above. When samples were evaluated for covalent adduct formation, a purification step was required. Briefly, the ~1 mL of clarified lysate was added to 9 mL of FLAG binding buffer (25 mM HEPES 7.5, 300 mM NaCl, 10% glycerol). These samples were incubated with 250 µL of anti-FLAG M2 affinity resin (Millipore-Sigma Cat. # A2220) for 3 h at 4 °C with gentle nutation. Samples were washed via gravity column filtration and eluted with 0.2 mg/ml FLAG Peptide (DYKDDDDK, CPC Scientific Peptide Company). Each sample was concentrated to 0.1 mg/mL using an Amicon Ultra-15 Centrifugal filter with a 50 kDa MWCO (Millipore-Sigma Cat. # UFC905024). Details on mass spectrometry analysis are below.
Each sample was analyzed using intact mass spectrometry under denaturing conditions using an Agilent 6530 QToF Mass Spectrometer coupled with an Agilent Infinity 1290 UPLC chromatography system. Spectra were analyzed using ChemLaunch v1.6.8 (Healex Systems), Mass Hunter V7.0 (Agilent Technologies), and BioConfirm v8.0 (Agilent Technologies). For all proteins analyzed, approximately 2 μl of 0.1–0.4 mg/ml protein sample was added to 8 μl 0.2% trifluoroacetic acid (TFA) (Sigma T6508–100 mL). Subsequently, 5 μl of each sample was injected onto the instrument. Depending on the resolution, the amount of protein loaded was altered. Theoretical versus observed molecular weight is presented in Supplementary Table 1. While we have not experimentally determined the post-translational modifications (PTMs) resulting in observed molecular weight, we believe a loss of methionine and acetylation are likely. Variations between theoretical and observed masses may also be due to the resolution of the deconvoluted spectra leading to imperfect peak identification, particularly for a protein with heterogeneous phosphorylation states. Variation of several Daltons is observed between biological replicates and individual experiments.

Test [2] deals with T3, BTK^FL (Homo sapiens, UniProt Q06187+Q13490).
T3 construct: we used a full-length BTK (aa1-659) with a C terminal Tobacco Etch Virus protease (TEV) site; expressed in transfected cells; host or cells: Expi293 (HEK293)
The test can be described thus: Tetracycline-inducible (T-REx) cIAP1^FL degradation of pre-formed BTK^FL~BCCov in Expi293. The format is cell-based. To be noted: pre-formed BTK^FL~BCCov (20 µM, 18 h), then tetracycline induction of cIAP1^FL. The protocol:
For assays involving inducible cIAP1 expression, 18 h after compound treatment cells were treated with a final concentration of 1.0 µg/mL tetracycline (Teknova Cat. #T3325) and shaken for another 18 h. These samples were processed for western blotting as detailed above. Washout condition consisted of 4 × 10 mL PBS resuspension, centrifugation, and removal repeated for four cycles before resuspension in cellular media.

The target of a further test is cIAP1^BUCR1 (Homo sapiens, UniProt Q13490). Briefly: biochemical.
Sequence of cIAP1^BUCR1 (Q13490 260-618): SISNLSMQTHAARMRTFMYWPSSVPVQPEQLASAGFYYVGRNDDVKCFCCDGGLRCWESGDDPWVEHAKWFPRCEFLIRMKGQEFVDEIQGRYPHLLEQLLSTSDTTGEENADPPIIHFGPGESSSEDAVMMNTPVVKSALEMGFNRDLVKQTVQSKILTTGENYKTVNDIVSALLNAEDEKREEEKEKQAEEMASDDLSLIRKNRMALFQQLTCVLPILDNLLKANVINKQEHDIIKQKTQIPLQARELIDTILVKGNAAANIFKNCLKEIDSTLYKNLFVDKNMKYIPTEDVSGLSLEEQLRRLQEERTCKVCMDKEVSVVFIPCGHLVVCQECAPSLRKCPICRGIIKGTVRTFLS

T2 sequence (Q06187 whole entry, the tested form may be a part): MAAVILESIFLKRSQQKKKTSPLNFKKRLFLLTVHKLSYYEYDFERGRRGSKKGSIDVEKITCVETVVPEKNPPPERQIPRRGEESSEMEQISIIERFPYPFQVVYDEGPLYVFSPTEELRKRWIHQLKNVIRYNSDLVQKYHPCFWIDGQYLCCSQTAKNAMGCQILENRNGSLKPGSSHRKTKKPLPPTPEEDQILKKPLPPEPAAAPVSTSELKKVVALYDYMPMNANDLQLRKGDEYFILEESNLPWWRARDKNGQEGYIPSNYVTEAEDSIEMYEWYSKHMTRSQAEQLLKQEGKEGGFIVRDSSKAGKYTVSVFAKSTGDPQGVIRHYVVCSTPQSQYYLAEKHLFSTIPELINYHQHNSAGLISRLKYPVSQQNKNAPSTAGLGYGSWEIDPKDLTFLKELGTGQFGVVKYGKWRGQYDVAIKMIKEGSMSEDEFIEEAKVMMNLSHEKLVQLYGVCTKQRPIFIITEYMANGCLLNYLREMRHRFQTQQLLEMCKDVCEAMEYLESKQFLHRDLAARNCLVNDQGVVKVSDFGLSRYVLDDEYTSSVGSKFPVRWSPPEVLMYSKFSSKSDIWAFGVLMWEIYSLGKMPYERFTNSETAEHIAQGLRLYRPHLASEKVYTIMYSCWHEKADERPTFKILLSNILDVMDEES
T3 sequence (Q06187 whole entry, the tested form may be a part): as above
T3 sequence (Q13490 whole entry, the tested form may be a part): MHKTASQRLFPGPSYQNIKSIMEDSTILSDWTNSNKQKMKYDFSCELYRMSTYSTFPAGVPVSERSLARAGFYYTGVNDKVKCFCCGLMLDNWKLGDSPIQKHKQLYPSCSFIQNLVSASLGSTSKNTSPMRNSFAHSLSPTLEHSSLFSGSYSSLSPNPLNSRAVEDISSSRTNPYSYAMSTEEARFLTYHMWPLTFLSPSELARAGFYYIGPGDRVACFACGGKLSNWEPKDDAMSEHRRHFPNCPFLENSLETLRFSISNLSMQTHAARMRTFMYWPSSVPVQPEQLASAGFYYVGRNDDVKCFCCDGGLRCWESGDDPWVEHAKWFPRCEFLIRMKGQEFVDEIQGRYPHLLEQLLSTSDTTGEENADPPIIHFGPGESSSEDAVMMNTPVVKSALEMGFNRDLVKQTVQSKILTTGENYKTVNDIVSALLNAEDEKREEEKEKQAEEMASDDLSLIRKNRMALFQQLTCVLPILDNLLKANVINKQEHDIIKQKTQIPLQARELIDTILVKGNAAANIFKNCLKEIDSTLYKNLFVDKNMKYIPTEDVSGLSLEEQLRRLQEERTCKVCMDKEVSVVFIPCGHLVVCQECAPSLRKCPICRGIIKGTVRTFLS
T1 sequence (Q06187 whole entry C481S, the tested form may be a part): as the sequence (Q06187 whole entry, the tested form may be a part) above, with C481S counted along it
Experimental for cIAP1^BUCR1: Experiments were performed on a Biacore^TM 8k instrument (GE Healthcare). Biotinylated cIAP1^Bir3 was captured onto a streptavidin sensor chip to levels ranging from 3000–4000 RU. Compound binding experiments were performed in 10 mM HEPES, pH 7.5, 150 mM NaCl, 0.02% BSA, 0.01% P20, and 2% DMSO at 25 °C. Experiments were carried out with n = 4 at 6 concentrations, with the highest concentration of 37 nM and subsequent 3-fold dilutions. BCCov was injected at a flow rate of 30 µL/min, total contact time of 120 s, and dissociation times of 5000 s, using the Single Cycle Kinetics experiment. Binding responses were processed using the Biacore 8k software to zero, x-align, double reference, and correct for excluded volume effects of DMSO in the data.

One may read the Dmax as the largest share of the target that was removed. Broadly, the Kd is the equilibrium constant for the complex coming apart. High values mean a looser complex, low ones a tighter complex. In the case of `CNC(C)C(=O)NC(C(=O)N1CC(NC(=O)COCCN2CCN(CC=CC(=O)N3CCCC(n4nc(-c5ccc(Oc6ccccc6)cc5)c5c(N)ncnc54)C3)CC2)CC1C(=O)NC1CCCc2ccccc21)C1CCCCC1` (stereo not drawn) [BCCov], on BTK^FL-C481S, the “covalent adduct formation on BTK^FL-C481S” value was “no similar adduct”. In addition, the “Cov Form Over Time (% covalent bond formation)” value at BTK^FL [1] (0.5 h) was 5.67% and 6.21% and 5.89%; on BTK^FL [1] (1 h), 8.64% and 10.21% and 9.49%; at BTK^FL [1] (2 h) it was 14.47% and 13.21% and 14.33%; at BTK^FL [1] (3.5 h), 19.26% and 19.25% and 19.86%; on BTK^FL [1] (5.5 h), 31.90% and 34.21% and 30.28%; on BTK^FL [1] (7 h) it was 34.24% and 36.81% and 34.22%. Besides, the “Cov Form Over Time (% covalent bond formation)” value at BTK^FL [1] (17 h) was 33.97% and 36.13% and 34.85%. In addition, the “BTK^FL covalently modified” value worked out at 35.00% on BTK^FL [1] (5 uM), 64.70% on BTK^FL [1] (10 uM), 77.49% at BTK^FL [1] (15 uM) and 94.20% on BTK^FL [1] (30 uM). Also, at BTK^FL [1] (single dose 20 µM), the “time that the level of covalent modification remains stable post-treatment” value is given as “at least 48 h”. On BTK^FL [2], this compound gave a Dmax of around 70%. The same compound registered a Kd on cIAP1^BUCR1 of at most 10 nM.
